Experimental findings from patent US9539237B2, “Compositions and methods for drug-sensitization or inhibition of a cancer cell” (The Texas A&M University System, priority 2012, dated 2017) are described below.

Read-outs that look alike come from different tables or passages of the source.

In series [1] the test system is multi-drug resistant ovarian carcinoma cell line SK-OV3. The series can be described thus: Cell growth assay on SK-OV3 cells. The format is cell-based, human. From the text: (§1) In these experiments, the following cell lines were used: CHOP-resistant NHL cell line G3, CHOP-sensitive NHL cell line CRL2631, the multi-drug resistant sarcoma cell line MES-SA-Dx5; multi-drug-resistant breast cancer cell line MDA-MB-231, multi-drug resistant ovarian carcinoma cell line SK-OV3, multi-drug resistant ovarian cancer cell line NCI/ADR-RES, drug-sensitive ovarian cancer cell line OVCAR-5, and multi-drug resistant ovarian cancer cell line OVCAR-3. […]

Series [2] deals with CHOP-resistant G3 NHL cells. The experiment in a line: Cell growth assay (resazurin fluorescence) on G3 cells. The format is cell-based, human. To be noted: for Magnitude of potentiation in combination with doxorubicin: G3; for Fold increase in potency over DOX alone: lymphoma cell line G3; for IC50: Homo sapiens. The protocol: Compositions were tested on CHOP-resistant G3 NHL cells that had been cultivated in RPMI medium for five days. Prior to assay, the cells were counted by haemocytometer and cell concentration standardized to 625,000 cells/ml. Test drugs were solubilized in 100% DMSO and then diluted to final assay concentration with 0.1M phosphate buffered saline (PBS) and a final DMSO concentration of 0.5%. […] The metabolic dye rezasurin was added to the wells of the assay plate at a final concentration of 20 μg/ml and the plates were incubated for an additional 24 hours. The plates were then read in a BMG Polarstar plate reader at wavelength (573-605) and the data plotted as OD versus increasing dilutions (i.e., decreasing total amounts) of rifabutin derivative concentration.
as §1

Series [3] has as its system drug-sensitive ovarian cancer cell line OVCAR-5. The experiment in a line: Cell growth assay on OVCAR-5 cells. In kind it is cell-based. An excerpt: (§2) In these experiments, the following cell lines were used: CHOP-resistant NHL cell line G3, CHOP-sensitive NHL cell line CRL2631, the multi-drug resistant sarcoma cell line MES-SA-Dx5; multi-drug-resistant breast cancer cell line MDA-MB-231, multi-drug resistant ovarian carcinoma cell line SK-OV3, multi-drug resistant ovarian cancer cell line NCI/ADR-RES, drug-sensitive ovarian cancer cell line OVCAR-5, and multi-drug resistant ovarian cancer cell line OVCAR-3.
(§3) Additional cell lines used include: ovarian cancer OVCAR-8. T lymphoblastoid leukemia MOLT-4, dexamethasone-resistant multiple myeloma MM.1R, myeloid leukemia cells HL-60, osteosarcoma cells U-2 OS, and myeloma RPMI 8226.

The test system of series [4] is primary human fibroblasts. The experiment in a line: Comparative cytotoxicity on primary human fibroblasts. To be noted: FIG. 3A and 3B.
Series [5] relates to multi-drug resistant ovarian cancer cell line OVCAR-3. The series can be described thus: Cell growth assay on OVCAR-3 cells. In kind it is cell-based.
Text: as §2, §3

Series [6] concerns multi-drug-resistant breast cancer cell line MDA-MB-231. The series can be described thus: Cell growth assay on MDA-MB-231 cells. In kind it is cell-based.
Text: as §2, §3

The test system of series [7] is multi-drug resistant ovarian cancer cell line NCI/ADR-RES. The experiment in a line: Cell growth assay on NCI/ADR-RES cells. In kind it is cell-based.
Text: as §2, §3

In series [8] the test system is multi-drug resistant sarcoma cell line MES-SA-Dx5. The series can be described thus: Cell growth assay on MES-SA-Dx5 cells. The format is cell-based.
Text: as §2, §3

The test system of series [9] is G3 CHOP-resistant NHL cells. The series can be described thus: G3 tumor efficacy studies in SCID mice. The format is in vivo. Particulars: fourth study. How it is done: In a first efficacy study, 6-8 week old female SCID mice (7 mice per treatment arm) were injected subcutaneously on both flanks with 1×10^7 G3 CHOP-resistant NHL cells. Once palpable tumors (about […] size) appeared, therapies (CHOP or CHOP+rifabutin) were started. CHOP was administered at the maximum tolerated dose (cyclophosphamide, 40 mg/kg i.v.; doxorubicin, 3.3 mg/kg i.v.; vincristine, 0.5 mg/kg i.v.; and prednisone, 0.2 mg/kg orally daily for 5 d) weekly for 3 weeks. Rifabutin in an amount of 100 mg/kg was administered on the day of each CHOP treatment and 24-hours later by gavage. Mouse body weight and tumor size were monitored every two days and tumor size measured by caliper. The tumor volume formula (L*W*W)/2 was used to calculate tumor mass.
A second efficacy study was conducted where mice were treated before the appearance of palpable tumors. In that experiment, one week after transplantation of CHOP-resistant G3 cells, one group (7 mice) was treated with CHOP-only and a second group (8 mice) was treated with CHOP+rifabutin.
A third study was conducted in which mice injected with CHOP-resistant G3 cells received reduced dosages of CHOP in combination with 33 mg/kg rifabutin. CHOP+rifabutin was administered weekly beginning one week post-inoculation. Control mice were given no CHOP or rifabutin.
SCID mice were injected with CHOP-resistant G3 cells in the same manner as the first efficacy study above. Treatments began 2 weeks post-inoculation and were administered twice weekly.

The next series deals with total intracellular ROS. The series can be described thus: Intracellular ROS by CellROX staining and flow cytometry. The format is cell-based. An excerpt: Cells were then stained with the fluorescent ROS indicator, CellROX, and subjected to flow cytometry to quantitate total intracellular ROS.
The electron transport chain (ETC) is known to be a primary generator of ROS in the cell. Most of the ROS is generated by Complexes I and III of the ETC. Inhibition of Complex I results in electrons piling up and leaking to react with oxygen to produce ROS.
(§4) MDR/P-gp activity is closely associated with calcium status in the cell, so calcium modulators were tested for effects on ROS. […] Relatively Dox-sensitive lymphoma (CRL2631, 10S, WSU) and ovarian carcinoma (OVCAR8) and more Dox-resistant lymphoma (G3R, 10R, WSUR) and ovarian carcinoma (ADR) were treated with 10 uM […] for 2 hrs. […] Cells were co-stained with the cell-permeable red fluorescent ROS indicator, CellROX, and cell-permeable green fluorescent calcium indicator. Fluo-4AM, and then subjected to flow cytometry to quantitate changes in ROS and calcium levels.
(§5) All samples were analyzed at the same time in flow cytometry.
(In general: A flow cytometer gives signals particle by particle.)

The test system of a further series is calcium mobilization. The series can be described thus: Calcium mobilization by Fluo-4AM staining and flow cytometry. In kind it is cell-based. To be noted: FIG. 41B. The protocol: as §4, §5
A general note: Calcium flux is commonly read through the fluorescence of an indicator in the cells.

With “11-deoxy-11-amino-4-deoxy-3,4[2-spiro-[1-(isobutyloxycarbonyl)-piperidin-4-yl]]-(1H)-imidazo-(2,5-dihydro)rifamycin S [RTI-176]”, the “Magnitude of potentiation in combination with doxorubicin” value (“Magnitude of potentiation” below) in series [1] is “+++ (+++ potentiation greater than 5 fold increase)”; in series [2] it was “+++ (+++ potentiation greater than 5 fold increase)”; in series [3], “+ (+ potentiation between 1.2 to 2.0 fold increase)”. Further, the “Fold increase in potency over DOX alone” value in series [2] was 5.2 fold. Also, in [4], the “Toxicity to normal cells” value is on record as “not toxic”.
Turning to “11-deoxy-11-imino-4-deoxy-3,4[2-spiro-[1-(isobutylaminocarbonyl)-piperidin-4-yl]]-(1H)-imidazo-(2,5-dihydro)rifamycin S [RTI-182]”, the “Magnitude of potentiation” value in series [1] is listed as “++ (++ potentiation between 2.1 to 5 fold increase)”; in series [5], “+ (+ potentiation between 1.2 to 2.0 fold increase)”; in [2], “+ (+ potentiation between 1.2 to 2.0 fold increase)”; in [6], “++ (++ potentiation between 2.1 to 5 fold increase)”. The “Fold increase in potency over DOX alone” value in series [2] stood at 2.0 fold.
As for “11-deoxy-11-imino-4-deoxy-3,4[2-spiro-[1-(isobutyloxycarbonyl)-piperidin-4-yl]]-(1H)-imidazo-(2,5-dihydro)rifamycin S [RTI-81]”, the “Magnitude of potentiation” value was “+++ (+++ potentiation greater than 5 fold increase)” in series [1], “+ (+ potentiation between 1.2 to 2.0 fold increase)” in series [7], “+++ (+++ potentiation greater than 5 fold increase)” in series [2] and “++ (++ potentiation between 2.1 to 5 fold increase)” in series [8]. Moreover, in [9] (DOX 3.3 mg/kg iv + RTI-81 10 mg/kg by gavage twice weekly), the “Longer life than doxorubicin only” value worked out at 27%. The Mean lifespan in [9] (doxorubicin+RTI-81 group) was 42.6. The Median lifespan in [9] (doxorubicin+RTI-81 group) came to 42.
As to `CCNC(=O)N1CCC2(CC1)N=c1c3c(O)c4c(O)c(C)c5c(c4c1=N2)C(=N)[C@@](C)(O/C=C/[C@H](OC)[C@@H](C)[C@@H](OC(C)=O)[C@H](C)[C@H](O)[C@H](C)[C@@H](O)[C@@H](C)/C=C/C=C(/C)C(=O)N3)O5` [RTI-82, 11-deoxy-11-imino-4-deoxy-3,4[2-spiro-[1-(ethylaminocarbonyl)-piperidin-4-yl]]-(1H)-imidazo-(2,5-dihydro)rifamycin S], the “Fold increase in potency over DOX alone” value in series [2] came to 0.7 fold. Further, the “Magnitude of potentiation” value in [6] is “+++ (+++ potentiation greater than 5 fold increase)”.
On to `CO[C@H]1/C=C/O[C@@]2(C)Oc3c(C)c(O)c4c(O)c(c5c(c4c3C2O)=NC2(CCN(CC(C)C)CC2)N=5)NC(=O)/C(C)=C\C=C\[C@H](C)[C@H](O)[C@@H](C)[C@@H](O)[C@@H](C)[C@H](OC(C)=O)[C@@H]1C` (stereo partly shown) [RTI-174, 11-deoxy-11-hydroxy-4-deoxy-3,4[2-spiro-[1-(2-methylpropyl)-piperidin-4-yl]]-(1H)-imidazo-(2,5-dihydro)rifamycin S], for which the “Magnitude of potentiation” value in series [1] is listed as “+ (+ potentiation between 1.2 to 2.0 fold increase)”; in [5] it was “+ (+ potentiation between 1.2 to 2.0 fold increase)”; in series [7], “+ (+ potentiation between 1.2 to 2.0 fold increase)”; in series [2], “++ (++ potentiation between 2.1 to 5 fold increase)”.
Turning to `CO[C@H]1/C=C/O[C@@]2(C)Oc3c(C)c(O)c4c(c3C2O)C2=NC3(CCN(C(=O)OCC(C)C)CC3)NC2=C(NC(=O)/C(C)=C\C=C\[C@H](C)[C@H](O)[C@@H](C)[C@@H](O)[C@@H](C)[C@H](OC(C)=O)[C@@H]1C)C4=O` (stereo partly shown) [RTI-175, 11-deoxy-11-hydroxy-4-deoxy-3,4[2-spiro-[1-(isobutyloxycarbonyl)-piperidin-4-yl]]-(1H)-imidazo-(2,5-dihydro)rifamycin S], the “Magnitude of potentiation” value in series [1] is given as “+++ (+++ potentiation greater than 5 fold increase)”; in [5], “+ (+ potentiation between 1.2 to 2.0 fold increase)”; in [7], “++ (++ potentiation between 2.1 to 5 fold increase)”; in series [2], “++ (++ potentiation between 2.1 to 5 fold increase)”; in [8], “+ (+ potentiation between 1.2 to 2.0 fold increase)”; in [3], “++ (++ potentiation between 2.1 to 5 fold increase)”. Further, the IC50 is above 64 µM in [2] and 1.06 µM in [2] (read-out: IC50 (μM) with doxorubicin (1 μM)).
As to `COc1cc2c(cc1OC)CN(CCc1ccc(NC(=O)c3cccc4c(=O)c5cccc(OC)c5[nH]c34)cc1)CC2` [elacridar], the “Induction of ROS relative to control drugs” value with total intracellular ROS (ADR and OVCAR8 cells, FIG. 41A) is reported as “induced ROS”. For the same compound, the “Induction of ROS” value with total intracellular ROS (OVCAR8, ADR-RES and G3 cells, 2 hrs, 10 uM, FIG. 38) is on record as “induced ROS”. In the series on calcium mobilization, the Induction of calcium result is listed as “induced calcium”.

One may read the IC50 as the concentration that gives 50% inhibition.
